Source: patent publication US10597388B2, “Pyridazinone herbicides” (FMC CORPORATION, priority 2014, dated 2020)

Tests used:
Type in all cases: in vivo
[1] = test system: chickweed (common chickweed, Stellaria media); experiment: Test C greenhouse herbicide test, postemergence
From the text: (§1) At the same time, plants selected from these crop and weed species and also chickweed (common chickweed, Stellaria media), kochia (Kochia scoparia), and oat, wild (wild oat, Avena fatua), were planted in pots containing Redi-Earth® planting medium (Scotts Company, 14111 Scottslawn Road, Marysville, Ohio 43041) comprising spaghnum peat moss, vermiculite, wetting agent and starter nutrients and treated with postemergence applications of test chemicals formulated in the same manner. Plants ranged in height from 2 to 18 cm (1- to 4-leaf stage) for postemergence treatments. Treated plants and controls were maintained in a greenhouse for 13 to 15 d, after which time all species were compared to controls and visually evaluated. Plant response ratings, summarized in Table C, are based on a scale of 0 to 100 where 0 is no effect and 100 is complete control. A dash (-) response means no test result.

[2] = test system: kochia (Kochia scoparia); experiment: Test C greenhouse herbicide test, postemergence
From the text: as §1

[3] = test system: oat, wild (wild oat, Avena fatua); experiment: Test C greenhouse herbicide test, postemergence
From the text: as §1

[4] = test system: ducksalad (Heteranthera limosa); experiment: Test B flooded paddy test; details: 250 g ai/ha, Flood, visual rating on scale of 0 to 100 where 0 is no effect and 100 is complete control, 13 to 15 d after treatment; for pest or weed control at 250 g/ha: Heteranthera limosa, 360 h, read-out: Plant response rating, Ducksalad
Outline: (§2)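 Plants at the 2-leaf stage were flooded to 3 cm above soil, and test compounds were applied directly into the paddy water, which was held at that depth throughout. After 13 to 15 d in a greenhouse, injury was rated visually against untreated controls on a 0–100 scale (0 no effect, 100 complete control).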

[5] = test system: barnyardgrass (Echinochloa crus-galli); experiment: Test B flooded paddy test; details: 250 g ai/ha, Flood, visual rating on scale of 0 to 100 where 0 is no effect and 100 is complete control, 13 to 15 d after treatment; for pest or weed control at 250 g/ha: Echinochloa crus-galli, 360 h, read-out: Plant response rating, Barnyardgrass
Outline: as §2

[6] = test system: sedge, umbrella (small-flower umbrella sedge, Cyperus difformis); experiment: Test B flooded paddy test; details: 250 g ai/ha, Flood, visual rating on scale of 0 to 100 where 0 is no effect and 100 is complete control, 13 to 15 d after treatment; for pest or weed control at 250 g/ha: Cyperus difformis, 360 h, read-out: Plant response rating, Sedge, Umbrella
Outline: as §2

[7] = test system: rice (Oryza sativa); experiment: Test B flooded paddy test; details: 250 g ai/ha, Flood, visual rating on scale of 0 to 100 where 0 is no effect and 100 is complete control, 13 to 15 d after treatment; for plant injury at 250 g/ha: Oryza sativa, 360 h, read-out: Plant response rating, Rice
Outline: as §2

[8] = test system: corn (Zea mays); experiment: Test A greenhouse herbicide test, pre- and postemergence
Outline: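 Seeds sown in loam–sand blend got a preemergence directed soil spray of compound in non-phytotoxic solvent with surfactant. Postemergence treatment was given at 2–10 cm, one- to two-leaf stage. After ~10 d in greenhouse, injury was rated visually vs untreated controls, 0 (no effect) to 100 (complete control).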

[9] = Postemergence, 31 g ai/ha, 0 to 100 scale (0 no effect, 100 complete control)
[10] = Postemergence, 125 g ai/ha, scale 0 to 100, 0 is no effect, 100 is complete control
[11] = Postemergence, 250 g ai/ha, scale 0 to 100, 0 no effect, 100 complete control, 13 to 15 d
[12] = postemergence, 62 g ai/ha, scale 0 to 100, 0 no effect, 100 complete control
[13] = Zea mays, post-emergence, 240 h, Postemergence, 125 g ai/ha, visual rating after approx. 10 d, 0 to 100 scale (0 no effect, 100 complete control)
[14] = Zea mays, post-emergence, 240 h, Postemergence, 500 g ai/ha, 0 to 100 scale, 0 is no effect, 100 is complete control, read-out: Corn plant response rating
[15] = Postemergence, 31 g ai/ha, scale 0 to 100 (0 no effect, 100 complete control)
[16] = Postemergence, 62 g ai/ha, 0 to 100 scale (0 no effect, 100 complete control)
[17] = postemergence, 125 g ai/ha, scale 0 to 100, 0 no effect, 100 complete control
[18] = Postemergence, 125 g ai/ha, 0 to 100 scale where 0 is no effect and 100 is complete control
[19] = Postemergence, 500 g ai/ha, visual rating after approx. 10 d, 0 to 100 scale (0 no effect, 100 complete control)
[20] = Postemergence, 250 g ai/ha, scale 0 to 100, 0 is no effect, 100 is complete control

SMILES | Chickweed plant response rating [1, 9] | Plant response rating, Chickweed [1, 10] | Plant response rating, Chickweed [1, 11] | Chickweed plant response rating [1, 12] | Kochia plant response rating [2, 9] | Plant response rating, Kochia [2, 10] | Plant response rating, Kochia [2, 11] | Kochia plant response rating [2, 12] | Oat, Wild plant response rating [3, 9] | Plant response rating, Oat, Wild [3, 10] | Plant response rating, Oat, Wild [3, 11] | Oat, Wild plant response rating [3, 12] | pest or weed control at 250 g/ha [4] [%] | pest or weed control at 250 g/ha [5] [%] | pest or weed control at 250 g/ha [6] [%] | plant injury at 250 g/ha [7] [%] | Plant response rating, Ducksalad [4] | Plant response rating, Barnyardgrass [5] | Plant response rating, Sedge, Umbrella [6] | Plant response rating, Rice [7] | further results
Cc1ccc2sc(C)c(-c3c(O)c(C)nn(C)c3=O)c2c1 [Compound 1, 4-(2,5-dimethylbenzo[b]thien-3-yl)-5-hydroxy-2,6-dimethyl-3(2H)-pyridazinone] | 95 | 98 | 100 | 95 | 95 | 95 | 100 | 95 | 50 | 85 | 100 | 70 | 20 | 0 | 0 | 0 | – | – | – | – | plant injury at 1000 g/ha ([8]; Zea mays, post-emergence, 240 h, Postemergence, 1000 g ai/ha, 0 to 100 scale, 0 is no effect, 100 is complete control, read-out: Corn plant response rating): 40%; Corn plant response rating (crop injury, 0 = no effect, 100 = complete kill) at 1000 g/ha ([8]; Zea mays, pre-emergence, 240 h, Preemergence, 1000 g ai/ha, 0 to 100 scale, 0 no effect, 100 complete control): 0%
CC(=O)Oc1c(C)nn(C)c(=O)c1-c1c(C)oc2ccc(C)cc12 [Compound 14, 5-(acetyloxy)-4-(2,5-dimethyl-3-benzofuranyl)-2,6-dimethyl-3(2H)-pyridazinone] | 90 | 90 | 90 | 90 | 85 | 90 | 90 | 85 | 10 | 40 | 45 | 30 | 0 | 0 | 0 | 0 | – | – | – | – | Corn plant response rating (crop injury, 0 = no effect, 100 = complete kill) at 125 g/ha [8, 13]: 0%; plant injury at 500 g/ha [8, 14]: 20%
CC(=O)Oc1c(C)nn(C)c(=O)c1-c1c(C)oc2c(C)cc(C)cc12 [Compound 16, 5-(acetyloxy)-2,6-dimethyl-4-(2,5,7-trimethyl-3-benzofuranyl)-3(2H)-pyridazinone] | 75 | 90 | 90 | 80 | 0 | 20 | 25 | 0 | 5 | 10 | 40 | 5 | 30 | 0 | 0 | 0 | – | – | – | – | Corn plant response rating (crop injury, 0 = no effect, 100 = complete kill) at 125 g/ha [8, 13]: 0%; plant injury at 500 g/ha [8, 14]: 0%
CC(=O)Oc1c(C)nn(C)c(=O)c1-c1c(C)sc2ccc(C)cc12 [Compound 25] | 90 | 100 | 100 | 98 | 95 | 100 | 100 | 95 | 60 | 90 | 95 | 70 | – | – | – | – | 20 | 30 | 60 | 0 | Plant response rating, Corn ([8]; Postemergence, 125 g ai/ha, visual rating after approx. 10 d, 0 to 100 scale (0 no effect, 100 complete control)): 0; Corn plant response rating ([8]; Postemergence, 500 g ai/ha, 0 to 100 scale, 0 is no effect, 100 is complete control): 20
COc1nn(C)c(=O)c(-c2c(C)c(C)cc3ccccc23)c1O [Compound 46, 4-(2,3-dimethyl-1-naphthalenyl)-5-hydroxy-6-methoxy-2-methyl-3(2H)-pyridazinone] | – | – | – | – | – | – | – | – | – | – | – | – | 0 | 0 | 0 | 0 | – | – | – | – | Corn plant response rating (crop injury, 0 = no effect, 100 = complete kill) at 125 g/ha ([8]; Zea mays, post-emergence, 240 h, Postemergence, 125 g ai/ha, 0 to 100 scale where 0 is no effect and 100 is complete control): 0%; plant injury at 500 g/ha [8, 14]: 0%
CCC(=O)Oc1c(C)nn(C)c(=O)c1-c1ccc(Br)c2ccccc12 [Compound 133] | – | – | – | – | – | – | 100 | – | – | – | 95 | – | – | – | – | – | 0 | 0 | 0 | 20 | Plant response rating, Kochia [2, 15]: 98; Kochia plant response rating [2, 16]: 100; Kochia plant response rating [2, 17]: 100; Plant response rating, Oat, Wild [3, 15]: 90; Oat, Wild plant response rating [3, 16]: 90; Oat, Wild plant response rating [3, 17]: 95; Plant response rating, Corn [8, 18]: 10; Plant response rating, Corn [8, 19]: 50
COC(=O)Oc1c(Br)nn(C)c(=O)c1-c1c(C)ccc2ccccc12 [Compound 137] | – | – | – | – | – | – | 100 | – | – | – | 90 | – | – | – | – | – | 40 | 25 | 65 | 0 | Plant response rating, Kochia [2, 15]: 100; Kochia plant response rating [2, 16]: 100; Kochia plant response rating [2, 17]: 100; Plant response rating, Oat, Wild [3, 15]: 70; Oat, Wild plant response rating [3, 16]: 70; Oat, Wild plant response rating [3, 17]: 90; Plant response rating, Corn [8, 18]: 30; Plant response rating, Corn [8, 19]: 70
COc1nn(C)c(=O)c(-c2c(C)ccc3ccccc23)c1OC(C)=O [Compound 138] | – | – | – | – | – | – | 100 | – | – | – | 90 | – | – | – | – | – | 0 | 0 | 0 | 0 | Plant response rating, Kochia [2, 15]: 90; Kochia plant response rating [2, 16]: 95; Kochia plant response rating [2, 17]: 100; Plant response rating, Oat, Wild [3, 15]: 50; Oat, Wild plant response rating [3, 16]: 80; Oat, Wild plant response rating [3, 17]: 80; Plant response rating, Corn [8, 18]: 0; Plant response rating, Corn [8, 19]: 20
Cc1ccc2ccccc2c1-c1c(OC(=O)N2CCOCC2)c(Br)nn(C)c1=O [Compound 176] | – | – | – | – | – | – | – | – | – | – | – | – | – | – | – | – | 0 | 0 | 0 | 0 | Plant response rating, Kochia [2, 15]: 90; Kochia plant response rating [2, 16]: 90; Plant response rating, Kochia [2, 20]: 100; Kochia plant response rating [2, 17]: 95; Plant response rating, Oat, Wild [3, 15]: 0; Oat, Wild plant response rating [3, 16]: 5; Plant response rating, Oat, Wild [3, 20]: 35; Oat, Wild plant response rating [3, 17]: 10; Plant response rating, Corn ([8]; Postemergence, 125 g ai/ha, 0 to 100 scale, 0 no effect, 100 complete control): 0; Plant response rating, Corn [8, 19]: 0
